From PMC3726336, “Product inhibition of cellulases studied with ^14C-labeled cellulose substrates” (Biotechnology for Biofuels, 2013)

Tests used:
TrCel6A [1] = molecular target: T1, TrCel6A (Trichoderma reesei, UniProt P07987); assay: Cellobiose inhibition of synergistic hydrolysis of 14C-BC by TrCel6A and EG TrCel5A; format: biochemical
T1 construct: TrCel6A was purified from the culture filtrate of Tr QM 9414 as described previously; made in house; host or cells: Trichoderma reesei QM 9414 culture filtrate (native producer)
Text: (§1) Here, we characterized the cellobiose and glucose inhibition of TrCel6A and its thermophilic counterpart, CtCel6A [9, 63]. First, the cellobiose inhibition of the synergistic hydrolysis of ^14C-BC by TrCel6A and TrCel5A was studied (Figure 7A). As TrCel6A was less sensitive to cellobiose inhibition than TrCel7A, the contribution of the cellobiose released during hydrolysis was not significant, and an average (DCB/DCB=0) over all time points was used in plotting (DCB/DCB=0) versus [cellobiose] (Figure 7D). No significant systematic variation of DCB/DCB=0 depending on hydrolysis time was observed. As in the case of GH7 CBHs, the IC50 value was found using Equations 5 and 6. Because the IC50 value for synergistic hydrolysis (Table 3) was of the same order as the apparent Ki value reported for TrCel5A [31], we further tested the inhibition of individual TrCel6A. BC is not a good substrate for TrCel6A, but its acid-treated derivative, BMCC, is readily degraded by the enzyme. Therefore, we prepared ^14C-BMCC by the heterogeneous acid hydrolysis of ^14C-BC. Without supplied cellobiose, both enzymes had similar activity with the ^14C-BMCC substrate, but CtCel6A was somewhat more resistant to cellobiose inhibition (Figure 7D, Table 3). The IC50 value for TrCel6A by itself was similar to that found for the synergistic hydrolysis. […]

TrCel6A [2] = molecular target: T1, TrCel6A; assay: Inhibition of hydrolysis of 14C-BMCC by TrCel6A; format: biochemical
Text: as §1, with “^14C-BC.” for “^14C-BC. Without supplied cellobiose, both enzymes had similar activity with the ^14C-BMCC substrate, but CtCel6A was somewhat more resistant to cellobiose inhibition (Figure 7D, Table 3). The IC50 value for TrCel6A by itself was similar to that found for the synergistic hydrolysis.”
GH6 CBHs were assessed by observing the hydrolysis of ^14C-BMCC. ^14C-BMCC (0.25 g l^-1) was incubated (with shaking at 350 rpm) with CBH (0.25 μM) and N188BG (0.06 μM) in 50 mM sodium acetate buffer, pH 5.0, containing BSA (0.1 g l^-1). […]

TrCel5A = molecular target: T2, TrCel5A (Trichoderma reesei, UniProt P07982); assay: Cellobiose inhibition of hydrolysis of 14C-amorphous cellulose by TrCel5A; format: biochemical; conditions: TrCel5A (5.0 nM), 35°C, not accountable by Equation 5
T2 construct: TrCel7B, TrCel5A, and TrCel12A were purified from the culture filtrate of Tr QM 9414; made in house; host or cells: Trichoderma reesei QM 9414 culture filtrate (native producer)
Text: EGs are a diverse group of enzymes present in all efficient cellulase systems. Their best recognized function is their synergism with CBHs. Depending on the conditions, the degree of synergistic effect may be more than 10-fold. Therefore, the inhibition of the EG component may result in a drastic decrease in the rate of the synergistic hydrolysis of cellulose. The main soluble product of the EG-catalyzed cellulose hydrolysis is cellobiose, but some glucose and higher-order oligosaccharides are also produced. Here, we studied the cellobiose inhibition of the EGs TrCel7B, TrCel5A and TrCel12A with ^14C-amorphous cellulose substrate. The enzyme concentrations and hydrolysis times were adjusted so that the linear region of the time course was studied. The time courses for the hydrolysis of ^14C-amorphous cellulose by TrCel7B in the presence and absence of added cellobiose are shown in Figure 9A. For the results with TrCel5A and TrCel12A, see Additional file 1: Figure S5. […] This figure is reasonably well in line with that measured for TrCel7B on amorphous cellulose using isothermal titration calorimetry. […]
EGs were assessed on ^14C-amorphous cellulose. ^14C-amorphous cellulose (0.5 g l^-1) was incubated (with shaking at 700 rpm) with EG in 50 mM sodium acetate buffer, pH 5.0, containing BSA (0.1 g l^-1) in the presence and absence of added cellobiose. […]

TrCel7A = molecular target: T3, TrCel7A (Trichoderma reesei, UniProt P62694); set-up: method as in PMID 22733813; conditions: read-out: IC50 for cellobiose, 14C-BC substrate, 25°C; cited from earlier work
T3 construct: TrCel7A was purified from the culture filtrate of Tr QM 9414 as described previously; made in house; host or cells: Trichoderma reesei QM 9414 culture filtrate (native producer)

TrCel12A = system: TrCel12A; set-up: method as in PMID 15129433; conditions: 3H-reduced amorphous cellulose, cellobiose 1 mM – 100 mM; cited from earlier work

T1 sequence (P07987 25-471): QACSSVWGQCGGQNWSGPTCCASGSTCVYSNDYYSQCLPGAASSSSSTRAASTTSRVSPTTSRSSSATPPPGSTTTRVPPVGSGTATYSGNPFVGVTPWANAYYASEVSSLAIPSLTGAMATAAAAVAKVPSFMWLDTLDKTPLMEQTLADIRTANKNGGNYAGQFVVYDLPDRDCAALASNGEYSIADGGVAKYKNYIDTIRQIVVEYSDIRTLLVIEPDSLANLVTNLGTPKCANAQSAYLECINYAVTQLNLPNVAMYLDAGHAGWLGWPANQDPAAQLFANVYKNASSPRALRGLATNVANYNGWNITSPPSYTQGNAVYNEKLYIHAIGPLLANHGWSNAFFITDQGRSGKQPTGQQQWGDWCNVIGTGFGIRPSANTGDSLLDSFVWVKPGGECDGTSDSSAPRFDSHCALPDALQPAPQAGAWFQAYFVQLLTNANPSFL
T3 sequence (P62694 18-513): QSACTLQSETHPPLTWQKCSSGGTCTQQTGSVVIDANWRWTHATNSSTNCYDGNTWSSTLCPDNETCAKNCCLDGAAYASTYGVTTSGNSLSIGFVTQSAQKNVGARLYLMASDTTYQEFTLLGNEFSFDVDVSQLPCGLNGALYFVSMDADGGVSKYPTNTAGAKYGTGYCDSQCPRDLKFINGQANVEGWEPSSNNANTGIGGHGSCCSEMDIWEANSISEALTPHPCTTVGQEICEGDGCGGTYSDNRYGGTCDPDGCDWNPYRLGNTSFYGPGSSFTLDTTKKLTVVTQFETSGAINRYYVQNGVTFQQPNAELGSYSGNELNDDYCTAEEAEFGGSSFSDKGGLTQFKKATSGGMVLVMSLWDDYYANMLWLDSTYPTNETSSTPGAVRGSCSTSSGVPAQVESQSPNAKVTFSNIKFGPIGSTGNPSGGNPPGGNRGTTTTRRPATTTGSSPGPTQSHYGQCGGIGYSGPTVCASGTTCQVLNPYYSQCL
T2 sequence (P07982 22-418): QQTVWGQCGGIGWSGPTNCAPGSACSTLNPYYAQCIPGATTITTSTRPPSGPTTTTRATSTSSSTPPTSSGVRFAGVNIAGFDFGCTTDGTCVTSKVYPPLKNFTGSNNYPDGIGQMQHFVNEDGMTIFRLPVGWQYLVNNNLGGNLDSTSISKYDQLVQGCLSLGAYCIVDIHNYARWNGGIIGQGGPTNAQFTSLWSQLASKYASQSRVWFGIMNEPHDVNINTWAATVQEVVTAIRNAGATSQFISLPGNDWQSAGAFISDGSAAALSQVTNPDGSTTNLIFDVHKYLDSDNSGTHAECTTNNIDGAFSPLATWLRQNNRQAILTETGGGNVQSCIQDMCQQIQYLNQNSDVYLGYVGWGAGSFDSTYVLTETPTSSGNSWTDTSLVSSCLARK

O=C[C@H](O)[C@@H](O)[C@H](O[C@@H]1O[C@H](CO)[C@@H](O)[C@H](O)[C@H]1O)[C@H](O)CO [cellobiose, Cellobiose]
IC50 (TrCel6A [1]): 16 ± 0.5 mM
IC50 (TrCel6A [2]): 20 ± 1.4 mM
IC50 (approximate, by visual inspection of Figure 9B) (TrCel5A): few hundred millimolar range
IC50 (TrCel7A): 0.38 ± 0.03 mM
Effect of cellobiose on activity (TrCel12A): apparent activation
